Values quoted from earlier work as cited in patent US20120083476A1, “HETEROARYL-SUBSTITUTED SPIROCYCLIC DIAMINE UREA MODULATORS OF FATTY ACID AMIDE HYDROLASE” (Janssen Pharmaceutica NV, priority 2009, published 2012).

System: CREAE mice
Settings: Baker 2001; cited from earlier work

In the case of CCCCCCCCCCCCCCCCS(=O)(=O)F [AM374], the “spasticity in CREAE mice” value is given as “significantly reduce spasticity”.
